Experimental data published in ChEMBL document CHEMBL1201862, “PubChem BioAssay data set” (2004).
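Results reflect a 48-hour exposure of cells in 96-well plates to compound at five concentrations. GI50 = concentration required for 50% inhibition of growth.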 Calls of active or inactive are those of the source. Cut-off read from the data, not from the text of the source: active = GI50 up to about 1.1 µM and inactive = higher.

Legend:
Assay in all cases: DTP human tumour cell line panel, 48 h
A498 = test system: A498
A549 = test system: A549
NCI-H23 = test system: NCI-H23
K562 = test system: K562
OVCAR-4 = test system: OVCAR-4
SW-620 = test system: SW-620
SNB-75 = test system: SNB-75
HOP-92 = test system: HOP-92
NCI-H522 = test system: NCI-H522
SK-MEL-2 = test system: SK-MEL-2
M14 = test system: M14
HCT-116 = test system: HCT-116
Malme-3M = test system: Malme-3M
NCI-H460 = test system: NCI-H460
ACHN = test system: ACHN
SK-MEL-5 = test system: SK-MEL-5
SF-295 = test system: SF-295

Measured: GI50

O=C1CCC(=O)c2ccccc2N1
inactive: A498 > 100 µM | A549 > 100 µM | NCI-H23 > 100 µM | K562 > 100 µM | OVCAR-4 > 100 µM | SW-620 > 100 µM | SNB-75 > 100 µM | HOP-92 > 100 µM | NCI-H522 > 100 µM | SK-MEL-2 > 100 µM | M14 > 100 µM | HCT-116 > 100 µM | Malme-3M > 100 µM | NCI-H460 > 100 µM | ACHN > 100 µM | SK-MEL-5 > 100 µM | SF-295 > 100 µM

Cc1nc2ccccc2c(=O)n1-c1ccccc1F
inactive: A498 > 100 µM | A549 > 100 µM | NCI-H23 > 100 µM | K562 > 100 µM | OVCAR-4 > 100 µM | SW-620 > 100 µM | SNB-75 30.2 µM | HOP-92 > 100 µM | NCI-H522 > 100 µM | SK-MEL-2 > 100 µM | M14 > 100 µM | HCT-116 > 100 µM | Malme-3M > 100 µM | NCI-H460 > 100 µM | ACHN > 100 µM | SK-MEL-5 > 100 µM | SF-295 > 100 µM

O=P(O)(OCC(O)O)OCC(O)O
inactive: A498 > 100 µM | A549 > 100 µM | NCI-H23 > 100 µM | K562 > 100 µM | SW-620 > 100 µM | SNB-75 > 100 µM | HOP-92 > 100 µM | NCI-H522 > 100 µM | SK-MEL-2 > 100 µM | HCT-116 > 100 µM | Malme-3M > 100 µM | NCI-H460 > 100 µM | ACHN > 100 µM | SK-MEL-5 > 100 µM | SF-295 > 100 µM

Cc1nc(Nc2ccc(Cl)cc2)sc1C(=O)NNC(=S)NN
inactive: A498 15.3 µM | A549 19 µM | NCI-H23 17.6 µM | K562 27.3 µM | OVCAR-4 17.7 µM | SW-620 19.5 µM | SNB-75 32.7 µM | HOP-92 26.1 µM | NCI-H522 16.6 µM | SK-MEL-2 18.5 µM | M14 19.7 µM | HCT-116 17 µM | Malme-3M 19.7 µM | NCI-H460 19.7 µM | ACHN 19.5 µM | SK-MEL-5 18.3 µM | SF-295 17.5 µM

COc1ccc2c(c1)[n+]([O-])c(C(=O)C/C(=N/NC(=O)C[N+](C)(C)C)C(=O)Nc1cccc(C)c1C)c(C)[n+]2[O-]
inactive: A498 > 100 µM | A549 > 100 µM | NCI-H23 > 100 µM | K562 > 100 µM | OVCAR-4 > 100 µM | SW-620 > 100 µM | SNB-75 > 100 µM | HOP-92 59 µM | NCI-H522 > 100 µM | SK-MEL-2 > 100 µM | M14 > 100 µM | HCT-116 > 100 µM | Malme-3M > 100 µM | NCI-H460 > 100 µM | ACHN > 100 µM | SF-295 > 100 µM
